The text below walks through data of patent US7687536B2, “Aminocycloalkyl cinnamide compounds for arrhythmia and as analgesics and anesthetics” (Cardiome Pharma Corp., priority 1999, dated 2010).

Data set [1] has as its target T1, cardiac sodium channel (Rattus norvegicus, UniProt P15389).
T1 construct: from tissue; host or cells: heart (left ventricle) of the living rat, in vivo
The experiment in a line: Assessment of sodium channel blockage: electrical stimulation of left ventricle in rats. The data set is classed as in vivo. The note with it: infusion rate required to elicit a 25% increase from control. The procedure:
Rats were prepared according to the preceding procedure. Two silver stimulating electrodes were inserted through the chest wall and implanted in the left ventricle. Square wave stimulation was used to determine threshold current for capture, ventricular fibrillation threshold current, and effective refractory period (Howard, P. G. and Walker, M. J. A., Proc. West. Pharmacol. Soc. 33:123-127 (1990)). Table 4 contains ED25 values for these indices of cardiac sodium channel blockage, where the ED25 is the infusion rate in micromol/kg/minute of compound required to elicit a 25% increase from control. The increases in refractoriness indicate ancillary blockage of potassium channels. The threshold current for capture is represented by “It”. The fibrillation threshold current is represented by “VFT”. The effective refracting period is represented by “ERP”.

Data set [2] has as its system cardiac arrhythmias in conscious rats subjected to coronary artery occlusion. The experiment in a line: Antiarrhythmic efficacy: coronary artery occlusion in conscious rats. The data set is classed as in vivo, rat. The note with it: infusion rate which reduces the arrhythmia score to 50% of that of vehicle-treated animals. The procedure: Antiarrhythmic efficacy was assessed by investigating the effect of a compound on the incidence of cardiac arrhythmias in conscious rats subjected to coronary artery occlusion. Rats weighing 200-300 gms were subjected to preparative surgery and assigned to groups in a random block design. In each case, the animal was anesthetized with halothane during surgical preparation. The left femoral artery was cannulated for measurement of mean arterial blood pressure and withdrawal of blood sample. The left femoral vein was also cannulated for injection of drugs. The thoracic cavity was opened and a polyethylene occluder loosely placed around the left anterior descending coronary artery. The thoracic cavity was then closed. ECG was recorded by insertion of electrodes placed along the anatomical axis of the heart. All cannulae and electrode leads were exteriorized in the mid scapular region. […] ECG, arrhythmias, blood pressure, heart rate and mortality were monitored for 30 minutes after occlusion. Arrhythmias were recorded as ventricular tachycardia (VT) and ventricular fibrillation (VF) and scored according to Curtis, M. J. and Walker, M. J. A., Cardiovasc. […]
Occlusion is associated with increases in R-wave height and “S-T” segment elevation; and an occluded zone (measured after death by cardiogreen dye perfusion) in the range of 25%-50% of total left-ventricular weight. […]

The test system of data set [3] is ECG parameters (P-R, QRS, Q-T interval). Description: Measurement of ECG parameters in pentobarbital anesthetized rats, bolus injections. The note with it: bolus injection. The data set is classed as in vivo, rat. The procedure: Rats weighing 200-250 gms were used in this example. Animals were anesthetized with 60 mg/kg pentobarbital i.p. The carotid artery and jugular vein were cannulated for measurement of blood pressure and drug injection, respectively. ECG was recorded by insertion of electrodes placed along the anatomical axis of the heart. All compounds were given as bolus injections.
Various ECG parameters were measured. Table 3 describes the results of the tests as ED25 (micromol/kg) which are the doses required to produce a 25% increase in the parameter measured (ne=not estimated). The increases in P-R interval and QRS interval indicate cardiac sodium channel blockage while the increase in Q-T interval indicates ancillary cardiac potassium channel blockage which is the property of a type 1a antiarrhythmic.

For data set [4], the system named is AF. The note with it: cited from earlier work.
In data set [5] the test system is sustained AF maintained during continuous vagal nerve stimulation. The experiment in a line: Canine vagal-AF model. The data set is classed as in vivo, dog. The protocol:
Mongrel dogs of either sex weighing 15-49 kg were anesthetized with morphine (2 mg/kg im initially, followed by 0.5 mg/kg IV every 2 h) and α-chloralose (120 mg/kg IV followed by an infusion of 29.25 mg/kg/h; St.-Georges et al., 1997). Dogs were ventilated mechanically with room air supplemented with oxygen via an endotracheal tube at 20 to 25 breaths/minute with a tidal volume obtained from a nomogram. Arterial blood gases were measured and kept in the physiological range (SAO2>90%, pH 7.30-7.45). Catheters were inserted into the femoral artery for blood pressure recording and blood gas measurement, and into both femoral veins for drug administration and venous sampling. Catheters were kept patent with heparinized 0.9% saline solution. Body temperature was maintained at 37-40° C. with a heating blanket.
The heart was exposed via a medial thoracotomy and a pericardial cradle was created. Three bipolar stainless steel, Teflon™-coated electrodes were inserted into the right atria for recording and stimulation, and one was inserted into the left atrial appendage for recording. A programmable stimulator (Digital Cardiovascular Instruments, Berkeley, Calif.) was used to stimulate the right atrium with 2 ms, twice diastolic threshold pulses. Two stainless steel, Teflon™-coated electrodes were inserted into the left ventricle, one for recording and the other for stimulation. A ventricular demand pacemaker (GBM 5880, Medtronics, Minneapolis, Minn.) was used to stimulate the ventricles at 90 beats/minute when (particular during vagal-AF) the ventricular rate became excessively slow. A P23 ID transducer, electrophysiological amplifier (Bloom Associates, Flying Hills, Pa.) and paper recorder (Astromed MT-95000, Toronto, ON, Canada) were used to record ECG leads II and III, atrial and ventricular electrograms, blood pressure and stimulation artefacts. The vagi were isolated in the neck, doubly-ligated and divided, and electrodes inserted in each nerve (see below). To block changes in β-adrenergic effects on the heart, nadolol was administered as an initial dose of 0.5 mg/kg iv, followed by 0.25 mg/kg IV every two hours.
Drug effects to terminate sustained AF maintained during continuous vagal nerve stimulation were assessed. Unipolar hook electrodes (stainless steel insulated with Teflon™, coated except for the distal 1-2 cm) were inserted via a 21 gauge needle within and parallel to the shaft of each nerve. In most experiments, unipolar stimuli were applied with a stimulator (model DS-9F, Grass Instruments, Quincy, Mass.) set to deliver 0.1 ms square-wave pulses at 10 Hz and a voltage 60% of that required to produce asystole. In some experiments, bipolar stimulation was used. The voltage required to produce asystole ranged between 3-20 volts. Under control conditions, a short burst of rapid atrial pacing (10 Hz, four times diastolic threshold) was delivered to induce AF which was ordinarily sustained for more than 20 minutes. The vagal stimulation voltage was adjusted under control conditions, and then readjusted after each treatment to maintain the same bradycardic effect. AF was defined as rapid (>500 minute under control conditions), irregular atrial rhythm with varying electrogram morphology.
Diastolic threshold current was determined at a basic cycle length of 300 ms by increasing the current 0.1 mA incrementally until stable capture was obtained. For subsequent protocols current was set to twice diastolic threshold. Atrial and ventricular ERP was measured with the extrastimulus method, over a range of S1S2 intervals at a basic cycle length of 300 ms. A premature extrastimulus S2 was introduced every 15 basic stimuli. The S1S2 interval was increased in 5 ms increments until capture occurred, with the longest S1S2 interval consistently failing to produce a propagated response defining ERP. Diastolic threshold and ERP were determined in duplicate and averaged to give a single value. These values were generally within 5 ms. […]

T1 sequence (P15389 whole entry): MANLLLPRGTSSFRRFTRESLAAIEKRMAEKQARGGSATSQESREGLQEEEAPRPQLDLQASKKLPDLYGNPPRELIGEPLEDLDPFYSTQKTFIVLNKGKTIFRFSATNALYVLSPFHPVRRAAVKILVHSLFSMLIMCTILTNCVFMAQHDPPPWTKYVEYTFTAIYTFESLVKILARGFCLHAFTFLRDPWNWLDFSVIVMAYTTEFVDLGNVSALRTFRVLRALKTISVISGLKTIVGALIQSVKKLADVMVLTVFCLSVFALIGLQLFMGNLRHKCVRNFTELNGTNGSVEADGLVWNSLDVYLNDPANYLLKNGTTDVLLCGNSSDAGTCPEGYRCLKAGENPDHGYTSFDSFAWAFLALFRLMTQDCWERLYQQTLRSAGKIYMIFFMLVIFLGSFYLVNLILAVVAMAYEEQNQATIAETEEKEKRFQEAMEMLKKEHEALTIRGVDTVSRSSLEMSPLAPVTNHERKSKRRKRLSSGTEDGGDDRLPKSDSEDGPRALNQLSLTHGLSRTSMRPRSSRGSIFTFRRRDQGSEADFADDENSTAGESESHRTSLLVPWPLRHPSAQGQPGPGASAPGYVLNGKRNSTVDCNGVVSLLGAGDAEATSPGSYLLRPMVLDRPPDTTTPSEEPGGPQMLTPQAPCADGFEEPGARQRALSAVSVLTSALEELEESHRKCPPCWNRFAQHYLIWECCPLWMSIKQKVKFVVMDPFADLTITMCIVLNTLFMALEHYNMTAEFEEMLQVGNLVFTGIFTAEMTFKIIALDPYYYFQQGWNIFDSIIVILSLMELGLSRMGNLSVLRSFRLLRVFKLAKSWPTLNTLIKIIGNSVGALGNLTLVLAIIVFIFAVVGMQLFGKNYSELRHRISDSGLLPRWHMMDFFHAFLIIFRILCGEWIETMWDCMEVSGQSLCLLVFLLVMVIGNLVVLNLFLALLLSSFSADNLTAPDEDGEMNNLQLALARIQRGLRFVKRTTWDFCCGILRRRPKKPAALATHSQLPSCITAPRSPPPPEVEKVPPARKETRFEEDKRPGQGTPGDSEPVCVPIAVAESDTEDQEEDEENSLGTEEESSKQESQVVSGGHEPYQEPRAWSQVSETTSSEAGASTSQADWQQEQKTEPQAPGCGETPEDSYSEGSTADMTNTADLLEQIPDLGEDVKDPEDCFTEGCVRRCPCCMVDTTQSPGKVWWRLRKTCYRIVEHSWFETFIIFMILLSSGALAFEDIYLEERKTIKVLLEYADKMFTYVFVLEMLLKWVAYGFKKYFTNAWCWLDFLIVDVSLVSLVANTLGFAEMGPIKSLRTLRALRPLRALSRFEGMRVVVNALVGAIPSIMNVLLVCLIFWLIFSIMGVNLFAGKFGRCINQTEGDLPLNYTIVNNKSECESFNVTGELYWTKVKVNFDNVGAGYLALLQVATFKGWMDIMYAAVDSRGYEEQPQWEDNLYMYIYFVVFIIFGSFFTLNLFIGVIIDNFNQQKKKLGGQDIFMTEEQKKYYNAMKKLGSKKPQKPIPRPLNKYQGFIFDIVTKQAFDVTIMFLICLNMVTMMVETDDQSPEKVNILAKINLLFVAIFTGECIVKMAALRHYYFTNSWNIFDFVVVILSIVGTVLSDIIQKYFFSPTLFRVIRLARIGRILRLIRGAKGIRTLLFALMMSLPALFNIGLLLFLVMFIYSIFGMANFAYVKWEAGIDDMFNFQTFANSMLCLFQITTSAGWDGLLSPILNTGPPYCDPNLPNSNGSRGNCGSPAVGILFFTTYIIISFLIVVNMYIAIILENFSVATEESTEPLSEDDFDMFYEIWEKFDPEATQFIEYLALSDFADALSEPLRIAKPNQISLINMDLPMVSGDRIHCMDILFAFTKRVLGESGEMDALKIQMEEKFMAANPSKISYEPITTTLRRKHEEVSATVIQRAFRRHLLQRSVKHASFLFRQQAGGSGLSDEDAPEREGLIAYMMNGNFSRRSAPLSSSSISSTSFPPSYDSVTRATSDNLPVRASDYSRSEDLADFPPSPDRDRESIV

As to `CN(C(=O)C=Cc1ccc(Cl)c(Cl)c1)C1CCCC1N1CCCC1.Cl` [Compound 3, (1R,2R)/(1S,2S)≠N-METHYL-N-[2-(1-PYRROLIDINYL)CYCLOPENTYL]3,4-DICHLOROCINNAMIDE MONOHYDROCHLORIDE], in data set [1], the “ED25 ERP (effective refractory period)” value came to 2 µmol/kg/min, the “ED25 It (threshold current for capture)” value was 4 µmol/kg/min and the “ED25 VFT (fibrillation threshold current)” value was found to be 12 µmol/kg/min. The ED50AA in data set [2] came to 2 µmol/kg/min. In addition, the “ED25 PR” value in data set [3] (dose required to produce a 25% increase in P-R interval) amounted to 8 µmol/kg. The “ED25 QT” value in data set [3] (dose required to produce a 25% increase in Q-T interval) is 5 µmol/kg. The “ED25 QRS” value in data set [3] (dose required to produce a 25% increase in QRS interval) came out at 12 µmol/kg.
For the compound `CCCCCCCN(CC)CCCC(O)c1ccc(NS(C)(=O)=O)cc1` (stereo not shown) [ibutilide], in data set [4], the “patients requiring cardioversion for refractory ventricular arrhythmias” value is recorded as around 1.7%. In addition, the “risk of ventricular proarrhythmia” value in data set [4] (patients) was around 4.4%.
`O=C(NCC1CCCCN1)c1cc(OCC(F)(F)F)ccc1OCC(F)(F)F` (stereo not shown) [Flecainide]: the “Median dose required for termination of AF” value in data set [5] (IV) was found to be 2.5 µmol/kg. In addition, in data set [5] (at the median dose for termination of vagal-AF), the “effect on blood pressure or heart rate” value was “did not reduce blood pressure or heart rate”. In data set [5] (dogs in which AF was induced under control conditions during ERP determination with vagal nerve stimulation), the “prevented induction of AF” value was 2/4. The “AF cycle length (AFCL)” value in data set [5] (during vagal nerve stimulation, prior to termination of AF) is “prolonged AFCL”. The “Mean dose required for termination of AF” value in data set [5] (mean±SEM, IV) was 4 ± 2 µmol/kg. In addition, in data set [5] (vagal-AF), the “efficacy for terminating AF (dogs terminated/dogs tested)” value was 5/6 and the “efficacy for terminating AF (percent of dogs)” value was 80%.
